Results: US11497212B2, “Substituted thiophenyl uracils, salts thereof and the use thereof as herbicidal agents” (Syngenta Crop Protection AG, priority 2017, dated 2022)

How the values were obtained:
Type in all cases: in vivo
[1] = system: Setaria viridis; assay: Herbicidal action post-emergence (greenhouse pot trial); conditions: application rate 20 g/ha, scored visually after about 3 weeks vs untreated controls
Description: (§1) Seeds of mono- and dicotyledonous weed plants and crop plants are laid out in sandy loam soil in plastic or wood-fiber pots, covered with earth and grown under controlled growth conditions in a greenhouse. 2 to 3 weeks after sowing, the trial plants are treated at the one-leaf stage. The compounds of the invention formulated in the form of wettable powders (WP) or emulsion concentrates (EC) were then sprayed onto the green parts of the plant as an aqueous suspension or emulsion with addition of 0.5% additive at a water application rate equivalent to 600 L/ha. After the trial plants had stood for about 3 weeks in the greenhouse, under optimal growth conditions, the effect of the preparations was scored visually by comparison with untreated controls. For example, 100% efficacy=plants have died, 0% efficacy=like control plants. Tables A1 to A15 below show the efficacies of selected compounds of the general formula (I) according to tables I.1 to I.60 on various harmful plants and an application rate corresponding to 80 g/ha or lower that were obtained by the aforementioned trial method.

[2] = system: Amaranthus retroflexus; assay: as above; conditions: application rate 20 g/ha, scored visually after about 3 weeks vs untreated controls
Description: as §1

[3] = system: Polygonum convolvulus; assay: as above; conditions: application rate 20 g/ha, scored visually after about 3 weeks vs untreated controls
Description: as §1

[4] = system: Matricaria inodora; assay: as above; conditions: application rate 20 g/ha, scored visually after about 3 weeks vs untreated controls
Description: as §1

[5] = system: Echinochloa crus-galli; assay: as above; conditions: application rate 20 g/ha, scored visually after about 3 weeks vs untreated controls
Description: as §1

[6] = system: Digitaria sanguinalis; assay: as above; conditions: application rate 20 g/ha
Description: as §1

[7] = system: Pharbitis purpurea; assay: as above; conditions: application rate 20 g/ha
Description: as §1

[8] = system: Viola tricolor; assay: as above; conditions: application rate 20 g/ha
Description: as §1

[9] = system: Veronica persica; assay: as above; conditions: application rate 20 g/ha
Description: as §1

[10] = system: Abutilon theophrasti; assay: as above; conditions: application rate 20 g/ha, scored visually after about 3 weeks vs untreated controls
Description: as §1

[11] = system: Triticum aestivum; assay: Crop compatibility post-emergence (greenhouse pot trial)
Description: as §1, with “plants.” for “plants. Tables A1 to A15 below show the efficacies of selected compounds of the general formula (I) according to tables I.1 to I.60 on various harmful plants and an application rate corresponding to 80 g/ha or lower that were obtained by the aforementioned trial method.”
(§2) Crop plant compatibilities were also scored correspondingly.
(§3) The effects observed are reported here on selected crop plants by comparison with the untreated controls (values in %).

[12] = system: Stellaria media; assay: Herbicidal action post-emergence (greenhouse pot trial); conditions: application rate 20 g/ha, scored visually after about 3 weeks vs untreated controls
Description: as §1

[13] = system: Oryza sativa; assay: Crop compatibility post-emergence (greenhouse pot trial)
Description: as §1, with “plants.” for “plants. Tables A1 to A15 below show the efficacies of selected compounds of the general formula (I) according to tables I.1 to I.60 on various harmful plants and an application rate corresponding to 80 g/ha or lower that were obtained by the aforementioned trial method.”
as §2, §3

SMILES	Setaria viridis (Efficacy in %) [1] [%]	Amaranthus retroflexus (Efficacy in %) [2] [%]	Polygonum convolvulus (Efficacy in %) [3] [%]	Matricaria inodora (Efficacy in %) [4] [%]	Echinochloa crus-galli (Efficacy in %) [5] [%]	Digitaria sanguinalis (Efficacy in %) [6] [%]	Pharbitis purpurea (Efficacy in %) [7] [%]	Viola tricolor (Efficacy in %) [8] [%]	Veronica persica (Efficacy in %) [9] [%]	Abutilon theophrasti (Efficacy in %) [10] [%]	Triticum aestivum (Efficacy in %) ([11]; application rate 20 g/ha) [%]	Stellaria media (Efficacy in %) [12] [%]	Oryza sativa (Efficacy in %) ([13]; application rate 20 g/ha) [%]	Triticum aestivum (Efficacy in %) ([11]; application rate 5 g/ha) [%]	Oryza sativa (Efficacy in %) ([13]; application rate 5 g/ha) [%]
CC(Sc1cc(-n2c(=O)cc(C(F)(F)F)n(C)c2=O)c(F)cc1Cl)C(=O)OCCOC(F)(F)F (centres unmarked) [I.1-41]	100	100	100	90	100	100	100	100	100	100	20	–	–	–	–
Cc1c(C(F)(F)F)n(C)c(=O)n(-c2cc(SCC(C)(C)C(=O)NCC3CCCCO3)c(Cl)cc2F)c1=O (centres unmarked) [I.54-241]	100	100	100	–	–	80	–	–	100	100	0	80	0	–	–
CCC(C)C(Sc1cc(-n2c(=O)cc(C(F)(F)F)n(C)c2=O)c(F)cc1Cl)C(=O)OCC1CCCO1 (centres unmarked) [I.5-71]	90	100	100	100	90	100	100	100	100	100	10	80	–	–	–
CC(C)=C(Sc1cc(-n2c(=O)cc(C(F)(F)F)n(C)c2=O)c(F)cc1Cl)C(=O)OCC1CCOC1 (centres unmarked) [I.42-72]	100	100	100	100	90	100	100	100	100	100	20	90	–	–	–
CCC(Sc1cc(-n2c(=O)cc(C(F)(F)F)n(C)c2=O)c(F)cc1Cl)C(=O)OCC1CCCS1 (centres unmarked) [I.2-81]	100	100	100	100	100	100	100	100	100	100	20	100	–	–	–
CC(C)C(Sc1cc(-n2c(=O)cc(C(F)(F)F)n(C)c2=O)c(F)cc1Cl)C(=O)OCC1CCOC1 (centres unmarked) [I.6-72]	90	100	100	100	80	100	100	100	100	100	–	90	–	20	–
CC(Sc1cc(-n2c(=O)cc(C(F)(F)F)n(C)c2=O)c(F)cc1Cl)C(=O)NCC1CCCCO1 (centres unmarked) [I.1-241]	100	100	100	100	–	100	–	100	100	100	–	100	10	20	–
CC(Sc1cc(-n2c(=O)cc(C(F)(F)F)n(C)c2=O)c(F)cc1Cl)C(=O)NC1CCCOC1 (centres unmarked) [I.1-276]	100	100	100	100	–	–	–	100	100	100	–	100	–	–	10
CC(Sc1cc(-n2c(=O)cc(C(F)(F)F)n(C)c2=O)c(F)cc1Cl)C(=O)OC1CCSC1 (centres unmarked) [I.1-123]	100	100	100	100	100	80	100	100	100	100	20	100	–	–	–
CCC(Sc1cc(-n2c(=O)cc(C(F)(F)F)n(C)c2=O)c(F)cc1Cl)C(=O)OCC1COC(C)C1 (centres unmarked) [I.2-73]	90	100	100	100	–	–	–	100	100	100	–	100	10	–	–
Cn1c(C(F)(F)F)cc(=O)n(-c2cc(SCC(C)(C)C(=O)OCC3CCCS3)c(Cl)cc2F)c1=O (centres unmarked) [I.48-81]	–	100	100	100	90	100	100	100	100	100	20	100	–	–	–
CCC(C)C(Sc1cc(-n2c(=O)cc(C(F)(F)F)n(C)c2=O)c(F)cc1Cl)C(=O)OCC1CCCCO1 (centres unmarked) [I.5-91]	90	100	90	90	80	–	100	100	100	100	10	–	–	–	–
CCC(C)C(Sc1cc(-n2c(=O)cc(C(F)(F)F)n(C)c2=O)c(F)cc1Cl)C(=O)OCC1CCOC1 (centres unmarked) [I.5-72]	80	100	90	90	90	100	100	100	100	100	20	–	–	–	–
Cn1c(C(F)(F)F)cc(=O)n(-c2cc(SCC(C)(C)C(=O)OCC3CCCCO3)c(Cl)cc2F)c1=O (centres unmarked) [I.48-91]	–	100	100	100	100	100	100	100	100	100	–	100	–	20	–
CC(Sc1cc(-n2c(=O)cc(C(F)(F)F)n(C)c2=O)c(F)cc1Cl)C(=O)OCCOCc1ccccc1 (centres unmarked) [I.1-6]	100	100	100	100	90	100	100	100	100	100	–	90	–	–	0
